Reference: ChEMBL document CHEMBL3507680, “University of Dundee, Gates Library screen for HepG2 cell viability”

Test: Human HepG2 cell viability assay in 384 well format
Assay type: toxicity, cell-based
Set-up: dose 125 nL, time 70.5 hour; concentration not given beside the values
Conditions: HepG2 cells, read-out: Inhibition

In order of rising cytotoxicity at 70.5 h:
1. Cc1nc(CN2CCc3cnc(C(C)C)nc3C2)oc1C  -77.4%
2. CN(C)S(=O)(=O)NC1CC(=O)N(c2ccccc2Cl)C1 (centres undefined)  -17.3%
3. COC[C@@H]1CCC[C@@]12CN(Cc1ccco1)CCO2  -15.7%
4. N#Cc1ccc(N2CCCN(C(=O)CC3CCCO3)CC2)cc1 (centres undefined)  -15.2%
5. Cc1ncc(CNC(C)(C)CO)c2cc(C(=O)c3ccc(Br)cc3)oc12  -14.3%
6. Cc1noc(C2CCCN(C(=O)CCNc3ncccn3)C2)n1 (centres undefined)  -13.2%
7. Cc1cc2[nH]c(O)nc2cc1NCc1ccccc1  -12.7%
8. Cn1cccc1C(=O)N1CCC2(CC1)CC(N1CCOCC1)C2  -12.5%
9. CCO[C@@H]1CO[C@@]2(CCCN(Cc3scnc3C)C2)C1  -11.1%
10. COc1ccccc1OCCNCCn1cccn1  -10.7%
11. CC(=O)NCC1CCN(C(=O)c2csc(-c3ccc(C)cc3C)n2)CC1  -10.6%
12. CC(C)COC(=O)N1CCC2(CCNC2)C1 (centres undefined)  -10.5%
13. O=C(c1ccccn1)N1CC[C@@H](N2CCOCC2)[C@@H]1Cc1ccccc1  -10.4%
14. CCc1c(C)nn(CCNC(=O)C2CCCN(C(=O)N(C)C)C2)c1C (centres undefined)  -10.4%
15. O=C(c1cc[nH]n1)N1CCCC(c2cccc(-n3ccnc3)n2)C1 (centres undefined)  -10.3%
16. COCCc1noc(Cn2c(=O)[nH]c3ccccc32)n1  -10.2%
17. CCN(C(=O)Nc1cc(C)on1)C(C)c1cccc(O)c1 (centres undefined)  -9.79%
18. Cc1cc(=O)n2ncnc2n1CC(O)COCc1ccccc1Cl (centres undefined)  -9.61%
19. CC(C)Oc1cccc(C(=O)C2CCCN(C(=O)c3ncn[nH]3)C2)c1 (centres undefined)  -9.49%
20. CCCS(=O)(=O)N1CCCC(c2cccc(C(=O)O)c2)C1 (centres undefined)  -9.39%
21. Cc1nc2ccnn2c(C)c1CCC(=O)N1CCN2CCCCC2C1 (centres undefined)  -9.21%
22. c1nc2c(c(NC3CCc4ncnn4C3)n1)CCC2 (centres undefined)  -8.75%
23. COCCc1noc(CN2CCCCC2Cn2cncn2)n1 (centres undefined)  -8.74%
24. CSc1nnc(CC2CCN(C(=O)CCc3cccnc3)CC2)n1C  -8.7%
25. O=C1C[C@H]2CC[C@@H](CN1)N2C(=O)Cc1ccsc1  -8.54%
26. Cc1ccc(-c2cnnc(NCC3(N4CCOCC4)CCCC3)n2)o1  -8.14%
27. Cc1ccccc1CN1CCOC(c2nccc(CN(C)C)n2)C1 (centres undefined)  -8.08%
28. NC1CCCCN(Cc2cc(-c3ccccc3OC(F)(F)F)no2)C1 (centres undefined)  -8.03%
29. O=S(=O)(C1CC1)N1CCO[C@H]2[C@@H](Oc3ncccc3F)CC[C@@H]21  -8.02%
30. CC1CCC(NC(=O)c2nn(C)cc2I)CC1 (centres undefined)  -7.74%
31. Cc1cccc(OC2CCN(C(=O)c3ccc4c(c3)OCO4)CC2)n1  -7.71%
32. CC(C)c1nsc(N2CCn3c(nnc3-c3ccccc3)C2)n1  -7.62%
33. CN(Cc1ccco1)[C@@H]1CN(C(=O)c2ccnnc2)C[C@@H]2CCCO[C@@H]21  -7.61%
34. CN1C[C@@H](O)[C@]2(CCN(C(=O)c3ccccc3)C2)S1(=O)=O  -7.54%
35. CC(=O)N1CCN(CC(=O)NCCCN(C)c2ccccc2)CC1  -7.53%
36. CCN1CCN(C)C2(CCN(Cc3ccc(C)o3)CC2)C1=O  -7.08%
37. CC1(C2CCN(CC(N)=O)CC2)CN(Cc2ccccc2)C(=O)CO1 (centres undefined)  -6.63%
38. CCCc1nc(C)c(C(=O)NCCNc2ncccn2)s1  -6.59%
39. CN(C)C(=O)CN1CCC2(COCc3cnc(-c4ccccc4)nc32)C1 (centres undefined)  -6.03%
40. Cc1cnn(CCC(=O)NS(=O)(=O)N2CCCc3ccccc32)c1  -5.92%
41. N#Cc1cccnc1N1CCCC(CO)(Cc2ccc(F)cc2)C1 (centres undefined)  -5.86%
42. Cc1ccc(S(=O)(=O)N2CCCCC(N3CCN(C)CC3)C2)cc1F (centres undefined)  -5.17%
43. CN1CCC2(CC1)CN(C(=O)c1cnccn1)Cc1ccccc12  -5.07%
44. O=C(Cc1cn2ccsc2n1)N1CCOCC(O)(CN2CCCC2)C1 (centres undefined)  -4.72%
45. Cn1ccnc1C(=O)NCc1cc(=O)n2c(n1)CN(CC1CC1)CCC2  -4.68%
46. Cc1ccc(S(=O)(=O)N[C@H](CO)C(C)C)cc1N(C)C  -4.66%
47. CCOC[C@]12COC[C@H]1CN(Cc1ccc(F)c(F)c1)C2  -4.64%
48. CC(C)(C)OC(=O)N1CCCN(c2nnc(Br)s2)CC1  -4.55%
49. COc1ccc(C(C)NC(=O)NCCCn2cncn2)cc1F (centres undefined)  -4.51%
50. Cn1ccnc(Sc2cccc(C#N)c2)c1=O  -4.29%
51. c1cnc(NCc2nnn3c2CN(CC2CC2)CCC3)nc1  -4.25%
52. COCCOc1ccc(S(=O)(=O)Nc2cccnc2O)cc1C  -4.13%
53. CC(Nc1ccc2c(c1)CCC2)c1nc(C2CC2)no1 (centres undefined)  -3.74%
54. CCn1ccnc1CN1CCN(Cc2cc(C#N)ccc2F)CC1  -3.57%
55. CCc1ccc(CN2CCNC(C(=O)N3CCN(C)CC3)C2)o1 (centres undefined)  -3.44%
56. CC(NCc1ccsc1)c1ccc(OCc2nccn2C)cc1 (centres undefined)  -3.28%
57. CSc1ccc(OC(C)C(=O)Nc2c(C)n[nH]c2C)cc1 (centres undefined)  -3.26%
58. Cc1cc(N[C@@H](CO)c2ccccc2)n2nc(C)c(C)c2n1  -2.95%
59. CCNC(c1cccnc1)c1ccc(F)c(F)c1 (centres undefined)  -2.78%
60. CC(C)CN1CCN(C(=O)c2cc(=O)c3ccccc3[nH]2)CC1  -2.68%
61. Cn1c(C(=O)N2CCc3[nH]cnc3C2C(=O)O)ccc1-c1ccccc1 (centres undefined)  -2.27%
62. Cn1cc(CNC2CC3(CCN(CC4CC4)CC3)c3ccccc32)cn1 (centres undefined)  -2.11%
63. Cc1cnn(CCC(=O)Nc2cccnc2N2CCC(CO)CC2)c1  -1.8%
64. CN(C)CCO[C@@H]1CC[C@H]2[C@H]1OCCN2C(=O)c1ccc(F)cc1  -1.79%
65. Cc1nc(C(C)NC(=O)c2cn(Cc3ccc(Cl)cc3)nn2)n[nH]1 (centres undefined)  -1.77%
66. O=C(O)c1csc(NCCc2ccccc2)n1  -1.2%
67. CN(Cc1cccc2ncccc12)C(=O)CCn1ccc(=O)[nH]c1=O  -1.13%
68. Cc1oc(C(=O)O)cc1S(=O)(=O)Nc1c(F)cccc1-n1cccn1  -0.99%
69. COCCn1nc(C(=O)N(C)Cc2ccc3ccccc3c2)ccc1=O  -0.954%
70. Cc1ccc(CN2CCN(Cc3ccncc3)CC2=O)cc1  -0.378%
71. CC(C)(CNc1ccccc1S(=O)(=O)C(F)F)N1CCOCC1  -0.0351%
72. CS(=O)(=O)c1ccc(OCCNCc2ccc(F)cc2F)cc1  0.183%
73. CC(C)CN1CCN(C)C2(CCN(Cc3ccsc3)CC2)C1=O  0.403%
74. Cc1cccc(N2CCN(C(=O)CN3CCN(CCO)CC3)CC2)c1  0.659%
75. O=C(NCCN1CCOCC1)c1cc(COc2ccccc2F)[nH]n1  0.766%
76. O=C(NCc1nc(C2CC2)no1)N1CCOC(c2cccc(F)c2)C1 (centres undefined)  0.958%
77. CC(C)c1noc(CCC(=O)NCC2CCC(C(N)=O)CC2)n1 (centres undefined)  1.53%
78. CCc1ccc(CN(Cc2ccco2)C(C)C(C)C)nc1 (centres undefined)  1.59%
79. CCc1cn[nH]c1C1CCN(c2cc(C)c3cc(OC)ccc3n2)CC1  1.76%
80. Cc1cccc(CN2CCC3(CCCN(C(=O)CN(C)C)C3)C2=O)n1 (centres undefined)  2.41%
81. COCC(=O)N1CCCCC1c1nccc(C)n1 (centres undefined)  3.46%
82. CC(Cc1ccco1)NC(=O)NCc1ncnn1C (centres undefined)  3.51%
83. CN1CCN(C2COC3(CCN(Cc4cccs4)CC3)C2)CC1 (centres undefined)  4.27%
84. Cc1nc(C)n(CC2CCCN2Cc2ccc(F)cc2C#N)n1 (centres undefined)  5.18%
85. Cc1nc(-n2cnnc2)ccc1-c1cccc2c1CCNC2  6.99%
86. Cc1cccc(C(=O)N2Cc3ccccc3C3(CCN(C)CC3)C2)n1  7.65%
87. CO[C@H]1CCN(c2nnc(C)s2)C[C@@H]1Cc1cccc(C)c1  7.81%
88. Cn1nnc2c1CCN(C(=O)CC1CC1)C2COCCN1CCCC1 (centres undefined)  8.05%
89. CCN1CCC2(CC1)OCCN2C(=O)c1cc(Cl)c(OC)c(Cl)c1  8.67%
90. O=C(c1cccs1)N1CCC(Cn2nc(-c3ccco3)ccc2=O)CC1  8.96%
91. COc1ccc(C)cc1-n1cnnc1C1CCCN(C)C1 (centres undefined)  9.2%
92. NC(=O)C1CCCN1Cc1nccn1CC(F)(F)F (centres undefined)  10.6%
93. CCN(Cc1noc(C)n1)C(=O)C(c1cccc(C)c1)N(C)C (centres undefined)  10.7%
94. CN(CCCNc1cc(N2CCCC2CO)ncn1)S(C)(=O)=O (centres undefined)  11.1%
95. COc1cc(NCCCSc2nnc(C)s2)ncn1  12%
96. Cn1cc(CCC(=O)N2C[C@H]3CC[C@@H]2CN(Cc2cccnc2)C3)cn1  12.2%
97. CN(C(=O)Cn1nc(-c2ccc(F)cc2)oc1=O)C1CCS(=O)(=O)C1 (centres undefined)  12.8%
98. CC(C)Cc1cc(NC(=O)c2ccc3[nH]nnc3c2)n(C)n1  14.7%
99. CCC(CO)N(Cc1ccccn1)C(=O)c1ccc2c(c1)CCO2 (centres undefined)  15%
100. CCCc1nnc(N(C)CC2CCCN(CC)C2)o1 (centres undefined)  15.4%
101. O=C(c1cn(-c2ccccc2)nn1)N1CCOCC(O)C1 (centres undefined)  15.7%
102. O=C(c1ccccc1O)N1CCN(C(=O)C2CCC2)CC1  16.4%
103. CCC(CC)C(=O)NCC1(NC(C)c2ccccc2)CCOCC1 (centres undefined)  16.6%
104. O=C(Nc1ccccn1)C1CC(=O)N(Cc2ccccn2)C1 (centres undefined)  16.8%
105. O=C(O)C1CN(Cc2cnc(C3CCCCC3)nc2)CCO1 (centres undefined)  17.1%
106. Cc1ccccc1C(=O)N1C[C@@H]2OCCN(c3ncccn3)[C@@H]2C1  17.4%
107. CC1CN(C(=O)c2cc(=O)[nH]c3ccc(F)cc23)CCO1 (centres undefined)  19.1%
108. CCn1nc(C)c(CCNC(=O)C2CCCN(CC(N)=O)C2)c1C (centres undefined)  19.1%
109. CC(=O)NCCC(=O)N(C/C=C/c1ccccc1)CCO  24%
110. Cc1nn(C)c2c(=O)n(C(C)C)c(NCCc3ccccc3)nc12  24.5%
111. Cc1cc(NCCC(=O)NC2CCCCC2)nc(-c2ccncc2)n1  24.9%
112. CN(C)C(=O)CN1CCC2(CCCN(Cc3cccn3C)C2)C1=O (centres undefined)  25.7%
113. Cc1nnc(N2CC[C@H]3C[C@@H](C(=O)NC4CCCC4)O[C@H]3C2)s1  27%
114. Cc1cnc2c(S(=O)(=O)NCC3CCS(=O)(=O)C3)cccc2c1 (centres undefined)  51.3%
